Reference: patent US20210338820A1, “PHARMACEUTICAL COMPOSITION COMPRISING ANTIEMETIC COMPOUNDS AND POLYORTHOESTER” (Heron Therapeutics, Inc., priority 2012, published 2021)

Columns and labels:
[1] = In-vitro release of formulation of aprepitant and granisetron (Example 1 formulation); assay type: physicochemical; settings: 37° C.; for active agent released from the formulation: Example 1 formulation, PBS + 2% CTAB; for in vitro release proceeded in a linear fashion up to: Example 1 semi-solid polyorthoester formulation, phosphate buffered saline + 2% CTAB, HPLC, FIG. 3
Protocol: In a first embodiment, 375 mg of aprepitant was dissolved in 1.3 g of a polyorthoester-compatible liquid excipient, dimethyl sulfoxide, and heated until completely dissolved. […] In a further embodiment, the formulation was weighed into vials and filled with a phosphate buffered saline solution and 2% CTAB (cetrimonium bromide). The vials were then stored at 37° C. Aliquots were taken daily and analyzed by HPLC to monitor for the release of granisetron and aprepitant from the formulation.
A formulation as described in Example 1 was weighed into vials and filled with a phosphate buffered saline solution and 2% CTAB (cetrimonium bromide). The vials were then stored at 37° C. Aliquots were taken daily and analyzed by HPLC to monitor for the release of granisetron and aprepitant from the formulation.

[2] = In vitro release of a formulation containing aprepitant (Example 3 formulation); assay type: physicochemical; settings: Example 3 semi-solid polyorthoester formulation; PBS + 2% CTAB, 37° C., HPLC, FIG. 4
Protocol: In a further embodiment, the formulation was weighed into vials and filled with a phosphate buffered saline solution and 2% CTAB. The vials were then stored at 37° C. and analyzed by HPLC to monitor for the release of aprepitant from the formulation (see FIG. 4).
A formulation as described in Example 3 was weighed into vials and filled with a phosphate buffered saline solution and 2% CTAB. The vials were then stored at 37° C. and analyzed by HPLC to monitor for the release of aprepitant from the formulation.

[3] = In-vitro release of formulation of fosaprepitant and granisetron (Example 6 formulation); assay type: physicochemical; settings: 37° C.; for active agent released from the formulation: Example 6 formulation, PBS; for in vitro release proceeded in a linear fashion up to: Example 6 semi-solid polyorthoester formulation, phosphate buffered saline, HPLC, FIG. 1
From the text: In a fifth embodiment, a formulation as described in Example 6 was weighed into vials and filled with a phosphate buffered saline solution.
A formulation as described in Example 6 was weighed into vials and filled with a phosphate buffered saline solution.

[4] = dog, in vivo, sc
Protocol: The syringes were stored at 2-8 C and brought to room temperature 1 hour before administration. Each dog received a single subcutaneous injection of the entire contents of 1 syringe (0.5 gm) over the dorsal lumbar muscle on Day 1. Blood was drawn from all dogs at the following time points: T=0, (immediately prior to drug administration), 1, 6, 12, 24, 48, 72, 96, 120, 144, and 168 hours post administration.

SMILES	active agent released from the formulation ([1]; after about 120 hours)	active agent released from the formulation ([1]; at about 48 hours)	active agent released from the formulation ([1]; at about 144 hours)	in vitro release proceeded in a linear fashion up to [1]	in vitro release proceeded in a linear fashion up to [2]	active agent released from the formulation ([3]; at about 100 hours)	bioavailability (areas under the curves) [4]	active agent released from the formulation ([3]; after about 60 hours)	active agent released from the formulation ([3]; at about 45 hours)	in vitro release proceeded in a linear fashion up to [3]
C[C@@H](O[C@H]1OCCN(Cc2n[nH]c(=O)[nH]2)[C@H]1c1ccc(F)cc1)c1cc(C(F)(F)F)cc(C(F)(F)F)c1 [aprepitant]	about 90%	about 65%	Essentially all	about 48 hours	about 72 hours	about 65%	good bioavailability	–	–	–
C[C@@H](O[C@H]1OCCN(Cc2nc(O)n(P(=O)(O)O)n2)[C@H]1c1ccc(F)cc1)c1cc(C(F)(F)F)cc(C(F)(F)F)c1 [fosaprepitant]	–	–	–	–	–	–	–	about 60%	about 25%	about 45 hours
CN1C2CCCC1CC(NC(=O)c1nn(C)c3ccccc13)C2 (centres unmarked) [granisetron]	–	about 65%	about 90%	about 48 hours	–	Nearly all	–	about 80%	about 25%	about 45 hours
